Experiments:
[1] = system: ISC-enriched organoids; assay: Primary screen, 384-well 2.5-D organoid differentiation (ENR+CD, 6 days, Target Selective Inhibitor Library, vs whole-plate median): ATP (CellTiter-Glo 3D, CTG); details: for Dose.FC.CTG: FC vs plate median; for Z.CTG: standard z score of FC
[2] = system: ISC-enriched organoids; assay: Primary screen, 384-well 2.5-D organoid differentiation (ENR+CD, 6 days): basal lysozyme secretion (LYZ.NS); format: cell-based, murine; details: for Dose.FC.LYZ.NS: FC vs plate median; for Z.LYZ.NS: standard z score of FC
Description: (§1) High-throughput screening.

[3] = system: ISC-enriched organoids; assay: Primary screen, 384-well 2.5-D organoid differentiation (ENR+CD, 6 days): carbachol-induced lysozyme secretion (LYZ.S); format: cell-based, murine; details: FC vs plate median
Description: as §1

[4] = primary screen, dose 0.08 uM, ENR+CD 6 days
[5] = primary screen, dose 0.40 uM, ENR+CD 6 days
[6] = primary screen, dose 2.00 uM, ENR+CD 6 days
[7] = primary screen, dose 10.00 uM, ENR+CD 6 days

SMILES | Dose.FC.CTG [1, 4] | Z.CTG ([1]; primary screen, dose 0.08 uM) | Dose.FC.CTG [1, 5] | Z.CTG ([1]; primary screen, dose 0.40 uM) | Dose.FC.CTG [1, 6] | Z.CTG ([1]; primary screen, dose 2.00 uM) | Dose.FC.CTG [1, 7] | Z.CTG ([1]; primary screen, dose 10.00 uM) | Dose.FC.LYZ.NS [2, 4] | Z.LYZ.NS ([2]; primary screen, dose 0.08 uM) | Dose.FC.LYZ.NS [2, 5] | Z.LYZ.NS ([2]; primary screen, dose 0.40 uM) | Dose.FC.LYZ.NS [2, 6] | Z.LYZ.NS ([2]; primary screen, dose 2.00 uM) | Dose.FC.LYZ.NS [2, 7] | Z.LYZ.NS ([2]; primary screen, dose 10.00 uM) | Dose.FC.LYZ.S [3, 4] | Dose.FC.LYZ.S [3, 5] | Dose.FC.LYZ.S [3, 6] | Dose.FC.LYZ.S [3, 7] | also measured
O=C(O)c1cccc(-c2noc(-c3ccccc3F)n2)c1 [Ataluren (PTC124)] | 0.267 log 2 fold change | 0.639 | −0.340 log 2 fold change | −0.813 | −0.042 log 2 fold change | −0.100 | 0.006 log 2 fold change | 0.013 | 0.029 log 2 fold change | 0.253 | 0.042 log 2 fold change | 0.362 | 0.131 log 2 fold change | 1.140 | 0.009 log 2 fold change | 0.077 | 0.051 log 2 fold change | 0.034 log 2 fold change | 0.058 log 2 fold change | 0.005 log 2 fold change | –
CN(C)C(=O)Nc1cccc(-c2ccc(N(C)C)cc2)c1 [Atglistatin] | 0.057 log 2 fold change | 0.137 | 0.004 log 2 fold change | 0.009 | −0.045 log 2 fold change | −0.108 | −0.431 log 2 fold change | −1.031 | 0.069 log 2 fold change | 0.604 | 0.135 log 2 fold change | 1.176 | 0.070 log 2 fold change | 0.613 | −0.016 log 2 fold change | −0.142 | 0.028 log 2 fold change | −0.035 log 2 fold change | 0.026 log 2 fold change | 0.012 log 2 fold change | –
CC(C)c1c(C(=O)Nc2ccccc2)c(-c2ccccc2)c(-c2ccc(F)cc2)n1CC[C@@H](O)C[C@@H](O)CC(=O)[O-].CC(C)c1c(C(=O)Nc2ccccc2)c(-c2ccccc2)c(-c2ccc(F)cc2)n1CC[C@@H](O)C[C@@H](O)CC(=O)[O-].[Ca+2] [Atorvastatin Calcium] | −0.129 log 2 fold change | −0.309 | −0.348 log 2 fold change | −0.831 | −1.085 log 2 fold change | −2.591 | −1.583 log 2 fold change | −3.780 | −0.009 log 2 fold change | −0.077 | 0.007 log 2 fold change | 0.062 | −0.247 log 2 fold change | −2.148 | −0.235 log 2 fold change | −2.045 | 0.022 log 2 fold change | −0.062 log 2 fold change | −0.354 log 2 fold change | −0.305 log 2 fold change | –
CCN1CCN(c2ccc(Nc3cc(N(C)C(=O)Nc4c(Cl)c(OC)cc(OC)c4Cl)ncn3)cc2)CC1 [BGJ398 (NVP-BGJ398)] | −0.054 log 2 fold change | −0.128 | 0.026 log 2 fold change | 0.063 | −0.185 log 2 fold change | −0.442 | −1.500 log 2 fold change | −3.583 | −0.002 log 2 fold change | −0.017 | −0.060 log 2 fold change | −0.520 | −0.052 log 2 fold change | −0.450 | −0.269 log 2 fold change | −2.345 | −0.036 log 2 fold change | 0.002 log 2 fold change | −0.062 log 2 fold change | −0.350 log 2 fold change | –
CC(C)CCN1c2nc(Nc3cc(F)c(O)c(F)c3)ncc2N(C)C(=O)C1C (centres unmarked) [BI-D1870] | 0.186 log 2 fold change | 0.444 | 0.029 log 2 fold change | 0.069 | −0.012 log 2 fold change | −0.028 | −0.700 log 2 fold change | −1.673 | 0.141 log 2 fold change | 1.225 | 0.126 log 2 fold change | 1.099 | −0.066 log 2 fold change | −0.574 | −0.285 log 2 fold change | −2.483 | 0.162 log 2 fold change | 0.158 log 2 fold change | 0.008 log 2 fold change | −0.378 log 2 fold change | –
C/C(=C\C(=O)Nc1ccccc1C(=O)O)c1ccc2ccccc2c1 [BIBR 1532] | 0.223 log 2 fold change | 0.533 | −0.047 log 2 fold change | −0.113 | −0.034 log 2 fold change | −0.080 | 0.030 log 2 fold change | 0.072 | 0.032 log 2 fold change | 0.282 | 0.043 log 2 fold change | 0.377 | −0.013 log 2 fold change | −0.117 | −0.062 log 2 fold change | −0.536 | 0.028 log 2 fold change | 0.107 log 2 fold change | −0.081 log 2 fold change | −0.114 log 2 fold change | –
COc1ccc2c(c1)c(CC(=O)N1CCOCC1)c(C)n2C(=O)c1ccc(Cl)cc1 [BML-190] | −0.003 log 2 fold change | −0.007 | −0.099 log 2 fold change | −0.237 | −0.106 log 2 fold change | −0.254 | −0.106 log 2 fold change | −0.254 | 0.072 log 2 fold change | 0.623 | −0.017 log 2 fold change | −0.152 | 0.116 log 2 fold change | 1.011 | 0.209 log 2 fold change | 1.823 | 0.060 log 2 fold change | −0.037 log 2 fold change | 0.017 log 2 fold change | 0.067 log 2 fold change | –
COc1ccnc2[nH]cc(C(=O)C(=O)N3CCN(C(=O)c4ccccc4)C[C@H]3C)c12 [BMS-378806] | 0.233 log 2 fold change | 0.557 | 0.102 log 2 fold change | 0.243 | −0.289 log 2 fold change | −0.691 | −1.155 log 2 fold change | −2.758 | 0.141 log 2 fold change | 1.231 | −0.007 log 2 fold change | −0.061 | −0.100 log 2 fold change | −0.870 | −0.227 log 2 fold change | −1.977 | 0.159 log 2 fold change | 0.007 log 2 fold change | −0.142 log 2 fold change | −0.322 log 2 fold change | –
O=C(Oc1cc(S(=O)(=O)c2ccccc2)ccc1[N+](=O)[O-])c1ccc(Cl)cc1 [BTB06584] | 0.275 log 2 fold change | 0.657 | 0.288 log 2 fold change | 0.688 | −0.180 log 2 fold change | −0.431 | 0.199 log 2 fold change | 0.475 | 0.091 log 2 fold change | 0.795 | 0.025 log 2 fold change | 0.214 | 0.024 log 2 fold change | 0.206 | −0.031 log 2 fold change | −0.268 | 0.222 log 2 fold change | 0.042 log 2 fold change | 0.039 log 2 fold change | 0.019 log 2 fold change | –
O=C(Nc1cccc(Nc2ncc(Br)c(NCCc3cnc[nH]3)n2)c1)N1CCCC1 [BX-912] | – | – | – | – | – | – | – | – | – | – | – | – | – | – | – | – | – | – | – | – | Dose.FC.CTG ([1]; Dose 0.08 uM, ENR+CD, 6 days): 0.043 log 2 fold change; Z.CTG ([1]; Dose 0.08 uM): 0.103; Dose.FC.CTG ([1]; Dose 0.40 uM, ENR+CD, 6 days): 0.054 log 2 fold change; Z.CTG ([1]; Dose 0.40 uM): 0.129; Dose.FC.CTG ([1]; Dose 2.00 uM, ENR+CD, 6 days): −0.246 log 2 fold change; Z.CTG ([1]; Dose 2.00 uM): −0.587; Dose.FC.CTG ([1]; Dose 10.00 uM, ENR+CD, 6 days): −0.397 log 2 fold change; Z.CTG ([1]; Dose 10.00 uM): −0.949; Dose.FC.LYZ.NS ([2]; Dose 0.08 uM, ENR+CD, 6 days): 0.010 log 2 fold change; Z.LYZ.NS ([2]; Dose 0.08 uM): 0.090; Dose.FC.LYZ.NS ([2]; Dose 0.40 uM, ENR+CD, 6 days): 0.017 log 2 fold change; Z.LYZ.NS ([2]; Dose 0.40 uM): 0.151; Dose.FC.LYZ.NS ([2]; Dose 2.00 uM, ENR+CD, 6 days): −0.089 log 2 fold change; Z.LYZ.NS ([2]; Dose 2.00 uM): −0.771; Dose.FC.LYZ.NS ([2]; Dose 10.00 uM, ENR+CD, 6 days): −0.196 log 2 fold change; Z.LYZ.NS ([2]; Dose 10.00 uM): −1.704; Dose.FC.LYZ.S ([3]; Dose 0.08 uM, ENR+CD, 6 days): 0.038 log 2 fold change; Dose.FC.LYZ.S ([3]; Dose 0.40 uM, ENR+CD, 6 days): 0.042 log 2 fold change; Dose.FC.LYZ.S ([3]; Dose 2.00 uM, ENR+CD, 6 days): −0.161 log 2 fold change; Dose.FC.LYZ.S ([3]; Dose 10.00 uM, ENR+CD, 6 days): −0.272 log 2 fold change

Source: patent US20230398130A1, “METHODS AND COMPOSITIONS FOR DIFFERENTIATING STEM CELLS” (Massachusetts Institute of Technology, priority 2020, published 2023)
